Laboratory results from PubChem BioAssay AID179 (DTP/NCI, 2004).
Activity calls are given as the source filed them.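 The calls were made as follows: active = compounds giving half or more protection of infected cells from virus-caused growth loss, again on retest; inactive = the rest.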

Tested on: CEM cells HIV-1 protection, formazan growth assay
Test: NCI AIDS Antiviral Assay
Conditions: for IC50: measured here: growth of uninfected CEM cells
In short: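 CEM (human) cells, HIV-1 infected vs uninfected, 5-point dosing, formazan growth read-out. Retest threshold 50% protection.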

SMILES	outcome	EC50 [µM]	IC50 [µM]
COc1ccc2occ(CCC(=O)O)c2c1	inactive		
COc1c2c(c(OC)c3c1C(=O)c1ccccc1C3=O)C(=O)CCC2		> 8.13	> 8.13
CCOC(=O)CC1NCCc2cc(OC)c(OC)c([N+](=O)[O-])c21 (stereo not given)	inactive		
Cc1cc(C)cc(OCC2CNC(=O)O2)c1 (stereo not given)		> 200	> 200
COC1/C=C/OC2(C)Oc3c(C)c(O)c4c(c3C2=O)C(=O)C(CO)=C(NC(=O)/C(C)=C\C=C\C(C)C(O)C(C)C(O)C(C)C(OC(C)=O)C1C)C4=O (stereo not given)		> 200	91.2
CCOC(=O)CON=c1c2ccccc2ccc2ccccc12		> 200	> 200
CCCC(=O)[O-].CCCC(=O)[O-].N.N.N.N.[Co+3].[O-][Cl+3]([O-])([O-])[O-]	inactive		
O=C(Nc1ccccc1)c1cc(S(=O)(=O)Nc2nc3ncccc3[nH]2)c(SSc2cc(Cl)c(C(=O)Nc3ccccc3)cc2S(=O)(=O)Nc2nc3ncccc3[nH]2)cc1Cl		112	> 200
C=C(Br)N(CC)CC		> 251	> 251
Cc1c(C#N)c2ccccc2c2nc3ccccc3n12		> 200	129
COc1ccc(SCc2ccc(C(=O)O)cc2)cc1		> 26.3	> 26.3
FC(F)(F)c1ccc2nc(NCc3ccccc3)c(-c3ccccc3)nc2c1		> 19.1	> 19.1
Cc1cc(C(=O)c2ccccc2)c2oc(-c3ccccc3)c(Cl)c(=O)c2c1		> 47.9	> 47.9
O=S(=O)(F)c1ccc(Cl)cc1C[P+](c1ccccc1)(c1ccccc1)c1ccccc1		> 200	87.1
Cc1coc(C)c1C(=S)Nc1ccc(Cl)c(C(=O)OC(C)C)c1		0.282	38
CCc1cccc(C)c1NC(=O)CC1Sc2ccccc2NC1=O (stereo not given)		> 28.8	17.8
Cn1c2c(c3ccccc31)CCN1C[C@@H]3CCCC[C@H]3C[C@@H]21		> 100	1.62
O=C(/C=C/c1ccccc1Cl)c1ccc(Cl)cc1Cl		> 3.31	> 3.31
CCCCCCCCCCCCCCCCOCC(Cl)COP(=O)(O)OP(=O)(O)OCC1OC(n2cnc3c(N)ncnc32)C(O)C1O (stereo not given)		> 100	> 100
Cc1cc2c(c3oc(=O)ccc13)[C@@H](OC(=O)C13CCC(C)(C(=O)O1)C3(C)C)[C@@H](OC(=O)C13CCC(C)(C(=O)O1)C3(C)C)C(C)(C)O2 (stereo not given in full)		0.38	2
CCN(CCNc1ccc(C)c2sc3ccccc3c(=O)c12)CC(C)(C)O		> 200	7.94
CCN(CC)/C(=C\Cl)Nc1ccccn1		> 759	117

SMILES	outcome	EC50 [µM]	IC50 [µM]
CC(=O)C(=Cc1ccc(Cl)cc1)C(C)=O		> 427	19.5
O/N=C(\c1ccccc1)N1CCCCC1	inactive		
COc1ccc(C2C(Cl)C(=O)N2NC(=O)c2ccccc2O)cc1 (stereo not given)		> 145	> 145
O=C(/C=C/c1ccc(Cl)c(Cl)c1)C1CCC(Cl)CC1 (stereo not given)		> 6.31	> 6.31
O=C1/C(=C\c2cccc(Oc3ccccc3)c2)SC(c2ccccc2)N1Cc1ccccc1 (stereo not given)		> 20	1.29
Cc1cccc(/C(Br)=C2/OC(=O)c3ccccc32)c1		> 200	182
COC(=O)C(C)(C)[C@@H]1OC(=O)N(S(=O)(=O)c2c(C)cc(C)cc2C)[C@H]1C(C)C		> 200	50.1
O=c1c2cc3c(=O)n(O)c(=O)c3cc2c(=O)n1O		> 200	> 200
O=Cc1cc2sc(C=O)cc2s1	inactive		
COC(=O)CCCc1ccc2c(c1)CC1(C2)Cc2cc3c(cc2C1)CCCC3		> 200	81.3
Cc1cc(C)c(NS(=O)c2ccc(Cl)cc2)c(C)c1 (stereo not given)		> 33.9	> 33.9
C/C=C/C#CC#CC(O)C(O)/C=C/CCCO (stereo not given)		> 77.6	> 77.6
CC(=O)Oc1c(C)c(-c2ccccc2)c(C)c(-c2ccccc2)c1C(=S)c1ccccc1	inactive		
COc1ccccc1CNCc1nc2ccccc2[nH]1		> 200	155
O=S(=O)(c1ccc(I)cc1)c1ccc(I)cc1	inactive		
OC1COc2ccc(Cl)cc2CSC1 (stereo not given)		> 200	166
COc1cc2c(cc1O)C1Cc3ccc(OC)c(O)c3C(C2)N1C (stereo not given)		> 200	85.1
COC(=O)C(=O)C(C(=O)C(=O)Nc1ccccc1OC)c1nc2ccc([N+](=O)[O-])cc2[nH]c1=O (stereo not given)		> 537	95.5
COc1c2occc2c(CN)c2ccc(=O)oc12		> 316	42.7
CN1C(=O)C(O)C[C@@H]1c1ccccc1 (stereo not given in full)	inactive		
O=S(=O)(F)c1ccc(C[P+](c2ccccc2)(c2ccccc2)c2ccccc2)cc1		> 200	> 100
CCCCCCC(=O)COP(=O)(OCC(=O)CCCCCC)OCC1OC(n2cc(C)c(=O)[nH]c2=O)CC1N=[N+]=[N-] (stereo not given)		0.00107	2

SMILES	outcome	EC50 [µM]	IC50 [µM]
CCCCCCCCCC(=O)NC(Cc1ccc(O)cc1)C(=O)NCCCNCCCCNCCCNC(=O)[C@@H](N)CCCN=C(N)N (stereo not given in full)		> 69.2	58.9
COC(=O)C(CC(C)=O)CS(=O)(=O)CC(=O)C(=O)Nc1cccc([N+](=O)[O-])c1 (stereo not given)		> 162	> 162
Cc1csc2[nH]c3ccccc3[n+]12	inactive		
Cc1cn([C@H]2C[C@@H](N(O)C(=O)Nc3ccccc3)[C@@H](CO)O2)c(=O)[nH]c1=O		> 200	> 200
COc1cc(/C=C2/SC(=S)NC2=O)cc(OC)c1O	inactive		
O=S(=O)(O)c1cc(N=Nc2ccc(O)c3ncccc23)ccc1/C=C/c1ccc(N=Nc2ccc(O)c3ncccc23)cc1S(=O)(=O)O		> 105	> 105
O=C(O)CCSC(=O)Nc1ccc([N+](=O)[O-])cc1	inactive		
CC(Cc1ccccc1)N(C)Cc1nc(C2CCC([N+](=O)[O-])O2)no1 (stereo not given)		> 200	36.3
N/N=C(\C(=O)Nc1ccc([N+](=O)[O-])cc1)C(C1=Nc2cc([N+](=O)[O-])ccc2NC1)[N+](=O)[O-] (stereo not given)		> 30.9	> 30.9
CCOC(=O)[C@H]1C[C@@H](C(=O)c2ccccc2)N2N=C(c3ccc(Br)cc3)C=C[C@H]12		> 100	> 100
COC(=O)c1cc(C(=CCCCC(=O)O)c2cc(Cl)c(OC)c(C(=O)OC)c2)cc(Cl)c1OC		> 200	> 200
C#CC(C)(C)OCCCCOc1cc(O)c2c(=O)c3ccccc3n(C)c2c1		> 3.8	> 3.8
CCOC(=O)C1=C(NC(C)(C)C)OCC1=O	inactive		
CSCCCS/C1=C/CCCCCCCCCC1		> 200	> 200
NCCCN1c2ccccc2Sc2ccc(Cl)cc21		> 200	10.7
O=S1c2ccccc2N=C(c2cccc3ccccc23)CC1c1cccc2ccccc12 (stereo not given)		> 60.3	> 60.3
CCNc1nc2c(ncn2C2CC(O)C(COP(=O)(O)O)O2)c(=O)[nH]1 (stereo not given)		> 100	> 100
C=CCC1(O)CC(n2ccc(=O)[nH]c2=O)OC1CO[Si](C)(C)C(C)(C)C (stereo not given)		> 200	> 100
CCC12CCCN(Cc3ccccc3)C1c1c(n(C)c3ccccc13)C(CO)C2 (stereo not given)		> 25.7	> 25.7
N#CCC(=O)NN=C1CCCCC1		> 200	> 200
COc1ccc(NC(=O)CC2SC(=Nc3ccc(Cl)cc3C)NC2=O)c([N+](=O)[O-])c1 (stereo not given)		> 398	> 398
CC(CO)CCNc1ncnc2c1ncn2CCC#N (stereo not given)		> 200	> 200

SMILES	outcome	EC50 [µM]	IC50 [µM]
COC(=O)C1=CC2OC1(C)C1(CC1)C2=O (stereo not given)	inactive		
O=C(/C=C/c1ccccc1)CCC1C(=O)c2ccccc2C1=O		> 23.4	> 23.4
CNCCN=c1ccc2c3c1c(O)c1c(O)ccc(=O)c1c3[nH]n2CCNCCO		> 112	0.347
O=[As](O)(O)c1ccc(F)cc1		> 200	> 200
CCCC1C(C#N)(C#N)C(C#N)=C(N)C1(C)C(C)=O (stereo not given)		> 200	> 200
CC(=O)Nc1cccc(N2C(=O)/C(=C\c3cccc(Oc4ccccc4)c3)SC2c2ccccc2)c1 (stereo not given)		> 200	30.9
O=C1CC([C@H](NC(=O)OCc2ccccc2)C(=O)O)ON1 (stereo not given in full)	inactive		
Cn1c(=O)cc(CC#N)c2ccccc21		> 200	> 200
CCCCCCCCCCCCSSC(=S)OC(C)C		> 200	> 200
Cc1c(CCl)c(=O)oc2c(C)c3occ(CCl)c(=O)c3cc12		> 11.2	4.9
CCCCCCC[CH2][Sn]1([CH2]CCCCCCC)[O]C(=O)c2cccnc2[S]1		0.794	91.2
N#Cc1ccc(OCCSCCCCCCCCCCSCCOc2ccc(C#N)cc2)cc1		> 2.88	> 2.88
O=[N+]([O-])c1ccc(Cc2nc3ccccc3s2)cc1		> 132	38
O=c1[nH]c2cc([N+](=O)[O-])ccc2nc1/C=C(\O)c1ccc([N+](=O)[O-])cc1		> 200	186
O=c1cc(NNc2ccccc2)[nH]c(=O)[nH]1		> 200	1.02
Cc1ccc2nc(NC(=S)NCCCCNC(=S)Nc3ccc4cc(C)ccc4n3)ccc2c1		> 10.7	> 10.7
COc1cccc(/C=N/[N-]C(N)=O)c1[O-].[Ni+2].[OH3+].c1ccc(-c2ccccn2)nc1	inactive		
COc1ccc2c(-c3ccc(O)cc3)c(Oc3ccc(Cl)cc3)c(=O)oc2c1		> 200	19.1
O=[N+]([O-])c1ccc(S(=O)(=O)c2ccccc2)c([N+](=O)[O-])c1	inactive		
Cc1cc2c(c(C(=O)NCC(=O)N[C@@H](C)C(=O)OCc3ccccc3)c1)Oc1c(cc(C)cc1C(=O)NCC(=O)N[C@@H](C)C(=O)OCc1ccccc1)S2		> 200	7.76
COc1c2c(nc3ccccc13)-c1cc(C(CC(=O)OC(C)(C)C)C(=O)OC(C)C)c(CO)c(=O)n1C2 (stereo not given)		> 28.8	0.479
NC1=Nc2ccccc2Sc2nnc(-c3ccc(Cl)cc3)n21		> 200	115
